Source: ChEMBL document CHEMBL5131403, “Synthesis and structure-activity relationship studies of 1,5-isomers of triazole-pyrrolopyrimidine as selective Janus kinase 1 (JAK1) inhibitors” (Bioorg Med Chem Lett, 2022)

What was measured:
[1] = target: T1, Tyrosine-protein kinase JAK3 (Homo sapiens) (UniProt P52333); experiment: Inhibition of JAK3 (unknown origin) at 1 uM by biochemical assay relative to control
T1 sequence (whole entry): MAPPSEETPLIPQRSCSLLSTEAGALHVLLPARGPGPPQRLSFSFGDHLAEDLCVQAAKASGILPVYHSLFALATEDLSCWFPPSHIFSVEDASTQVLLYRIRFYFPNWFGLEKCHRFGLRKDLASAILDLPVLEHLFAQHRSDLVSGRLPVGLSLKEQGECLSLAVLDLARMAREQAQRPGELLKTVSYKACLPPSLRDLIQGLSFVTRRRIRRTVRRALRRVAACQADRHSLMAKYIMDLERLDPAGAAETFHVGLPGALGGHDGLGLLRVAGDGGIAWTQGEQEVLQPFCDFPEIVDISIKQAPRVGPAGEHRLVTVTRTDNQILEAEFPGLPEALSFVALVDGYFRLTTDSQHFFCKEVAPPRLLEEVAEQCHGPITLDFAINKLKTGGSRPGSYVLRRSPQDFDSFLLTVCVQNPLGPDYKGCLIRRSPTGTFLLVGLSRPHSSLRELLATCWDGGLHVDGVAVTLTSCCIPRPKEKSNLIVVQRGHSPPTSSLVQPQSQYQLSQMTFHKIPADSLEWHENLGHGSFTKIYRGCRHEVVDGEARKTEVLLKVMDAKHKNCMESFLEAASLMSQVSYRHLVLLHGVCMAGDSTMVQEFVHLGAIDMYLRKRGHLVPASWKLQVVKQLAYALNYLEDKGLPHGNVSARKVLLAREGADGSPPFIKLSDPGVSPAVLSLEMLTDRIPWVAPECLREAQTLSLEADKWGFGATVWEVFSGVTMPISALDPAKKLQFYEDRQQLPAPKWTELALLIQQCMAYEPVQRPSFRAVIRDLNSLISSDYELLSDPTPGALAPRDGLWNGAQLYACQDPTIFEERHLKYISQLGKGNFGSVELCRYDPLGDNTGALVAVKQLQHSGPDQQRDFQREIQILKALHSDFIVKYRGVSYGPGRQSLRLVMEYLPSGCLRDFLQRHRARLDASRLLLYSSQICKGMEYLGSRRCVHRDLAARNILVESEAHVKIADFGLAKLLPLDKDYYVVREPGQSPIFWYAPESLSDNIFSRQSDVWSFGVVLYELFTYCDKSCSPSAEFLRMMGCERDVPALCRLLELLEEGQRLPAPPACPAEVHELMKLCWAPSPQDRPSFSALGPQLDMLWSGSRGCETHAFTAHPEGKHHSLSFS

[2] = target: T2, Tyrosine-protein kinase JAK1 (Homo sapiens, UniProt P23458); experiment: Inhibition of JAK1 (unknown origin) by biochemical assay
T2 sequence (P23458 whole entry): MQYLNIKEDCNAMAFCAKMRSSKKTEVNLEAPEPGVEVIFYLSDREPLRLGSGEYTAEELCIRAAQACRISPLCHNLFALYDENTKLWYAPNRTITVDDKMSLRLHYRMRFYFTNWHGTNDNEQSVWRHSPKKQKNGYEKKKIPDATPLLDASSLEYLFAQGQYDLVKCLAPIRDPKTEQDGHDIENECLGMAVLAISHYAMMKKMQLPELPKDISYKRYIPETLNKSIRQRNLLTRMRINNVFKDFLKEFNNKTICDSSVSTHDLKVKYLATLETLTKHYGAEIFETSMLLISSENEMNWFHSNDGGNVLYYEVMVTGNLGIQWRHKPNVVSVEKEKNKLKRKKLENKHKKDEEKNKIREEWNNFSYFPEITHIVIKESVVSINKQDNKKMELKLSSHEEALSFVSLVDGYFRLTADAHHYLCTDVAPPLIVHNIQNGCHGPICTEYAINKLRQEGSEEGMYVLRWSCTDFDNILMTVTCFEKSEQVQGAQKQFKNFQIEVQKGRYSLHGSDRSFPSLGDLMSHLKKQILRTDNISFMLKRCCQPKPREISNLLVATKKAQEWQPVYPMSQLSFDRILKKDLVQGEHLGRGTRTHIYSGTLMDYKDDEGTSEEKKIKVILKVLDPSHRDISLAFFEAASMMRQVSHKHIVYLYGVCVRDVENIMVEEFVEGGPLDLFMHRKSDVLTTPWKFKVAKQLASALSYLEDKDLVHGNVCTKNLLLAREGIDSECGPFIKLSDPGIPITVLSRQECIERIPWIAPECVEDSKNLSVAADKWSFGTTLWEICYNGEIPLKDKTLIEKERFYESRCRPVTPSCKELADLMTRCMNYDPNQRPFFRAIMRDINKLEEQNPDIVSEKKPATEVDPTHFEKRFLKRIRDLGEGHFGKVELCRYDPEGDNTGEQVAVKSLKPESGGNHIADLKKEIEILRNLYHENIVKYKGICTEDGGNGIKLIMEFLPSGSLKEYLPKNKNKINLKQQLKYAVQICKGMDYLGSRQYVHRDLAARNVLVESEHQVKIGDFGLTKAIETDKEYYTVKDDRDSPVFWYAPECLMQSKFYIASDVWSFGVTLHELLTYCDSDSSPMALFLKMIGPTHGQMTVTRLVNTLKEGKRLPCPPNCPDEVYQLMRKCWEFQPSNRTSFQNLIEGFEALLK

[3] = target: T2, Tyrosine-protein kinase JAK1; experiment: Inhibition of JAK1 (unknown origin) at 1 uM by biochemical assay relative to control
[4] = target: Non-receptor tyrosine-protein kinase TYK2 (Homo sapiens) (UniProt P29597); experiment: Inhibition of TYK2 (unknown origin) at 1 uM by biochemical assay relative to control
Sequence of Non-receptor tyrosine-protein kinase TYK2 (Homo sapiens) (P29597 whole entry): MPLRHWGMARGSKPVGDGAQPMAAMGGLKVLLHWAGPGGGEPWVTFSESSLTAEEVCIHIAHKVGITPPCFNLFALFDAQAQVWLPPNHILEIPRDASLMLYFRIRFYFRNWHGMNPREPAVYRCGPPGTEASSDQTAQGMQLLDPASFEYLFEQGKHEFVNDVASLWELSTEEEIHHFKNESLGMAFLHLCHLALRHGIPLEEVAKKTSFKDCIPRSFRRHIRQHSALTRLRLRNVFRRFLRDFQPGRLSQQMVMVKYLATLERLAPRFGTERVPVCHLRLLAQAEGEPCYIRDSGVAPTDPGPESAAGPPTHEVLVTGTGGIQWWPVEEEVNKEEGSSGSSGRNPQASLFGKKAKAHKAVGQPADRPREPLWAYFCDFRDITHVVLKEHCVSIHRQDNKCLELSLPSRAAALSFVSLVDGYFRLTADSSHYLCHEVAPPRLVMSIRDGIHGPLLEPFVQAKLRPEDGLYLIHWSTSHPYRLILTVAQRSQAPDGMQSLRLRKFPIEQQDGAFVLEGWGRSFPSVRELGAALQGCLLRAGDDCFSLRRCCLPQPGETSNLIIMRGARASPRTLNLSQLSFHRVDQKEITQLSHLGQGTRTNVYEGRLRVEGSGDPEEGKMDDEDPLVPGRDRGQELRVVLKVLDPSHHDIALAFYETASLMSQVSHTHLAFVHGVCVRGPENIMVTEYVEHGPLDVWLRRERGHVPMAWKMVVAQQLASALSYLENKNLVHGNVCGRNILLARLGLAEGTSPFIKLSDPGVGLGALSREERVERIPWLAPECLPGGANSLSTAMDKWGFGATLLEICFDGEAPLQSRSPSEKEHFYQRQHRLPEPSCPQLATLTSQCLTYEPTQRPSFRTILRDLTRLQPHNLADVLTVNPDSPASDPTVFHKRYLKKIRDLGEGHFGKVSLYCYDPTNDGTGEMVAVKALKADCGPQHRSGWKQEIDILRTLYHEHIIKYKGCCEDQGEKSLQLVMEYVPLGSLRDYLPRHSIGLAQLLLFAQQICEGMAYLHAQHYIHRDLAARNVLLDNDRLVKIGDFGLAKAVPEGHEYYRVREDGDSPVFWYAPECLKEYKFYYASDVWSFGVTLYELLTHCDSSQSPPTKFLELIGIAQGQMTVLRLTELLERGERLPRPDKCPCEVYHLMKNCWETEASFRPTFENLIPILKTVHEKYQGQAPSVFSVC

[5] = target: T3, Tyrosine-protein kinase JAK2 (Homo sapiens, UniProt O60674); experiment: Inhibition of JAK2 (unknown origin) by biochemical assay
T3 sequence (O60674 whole entry): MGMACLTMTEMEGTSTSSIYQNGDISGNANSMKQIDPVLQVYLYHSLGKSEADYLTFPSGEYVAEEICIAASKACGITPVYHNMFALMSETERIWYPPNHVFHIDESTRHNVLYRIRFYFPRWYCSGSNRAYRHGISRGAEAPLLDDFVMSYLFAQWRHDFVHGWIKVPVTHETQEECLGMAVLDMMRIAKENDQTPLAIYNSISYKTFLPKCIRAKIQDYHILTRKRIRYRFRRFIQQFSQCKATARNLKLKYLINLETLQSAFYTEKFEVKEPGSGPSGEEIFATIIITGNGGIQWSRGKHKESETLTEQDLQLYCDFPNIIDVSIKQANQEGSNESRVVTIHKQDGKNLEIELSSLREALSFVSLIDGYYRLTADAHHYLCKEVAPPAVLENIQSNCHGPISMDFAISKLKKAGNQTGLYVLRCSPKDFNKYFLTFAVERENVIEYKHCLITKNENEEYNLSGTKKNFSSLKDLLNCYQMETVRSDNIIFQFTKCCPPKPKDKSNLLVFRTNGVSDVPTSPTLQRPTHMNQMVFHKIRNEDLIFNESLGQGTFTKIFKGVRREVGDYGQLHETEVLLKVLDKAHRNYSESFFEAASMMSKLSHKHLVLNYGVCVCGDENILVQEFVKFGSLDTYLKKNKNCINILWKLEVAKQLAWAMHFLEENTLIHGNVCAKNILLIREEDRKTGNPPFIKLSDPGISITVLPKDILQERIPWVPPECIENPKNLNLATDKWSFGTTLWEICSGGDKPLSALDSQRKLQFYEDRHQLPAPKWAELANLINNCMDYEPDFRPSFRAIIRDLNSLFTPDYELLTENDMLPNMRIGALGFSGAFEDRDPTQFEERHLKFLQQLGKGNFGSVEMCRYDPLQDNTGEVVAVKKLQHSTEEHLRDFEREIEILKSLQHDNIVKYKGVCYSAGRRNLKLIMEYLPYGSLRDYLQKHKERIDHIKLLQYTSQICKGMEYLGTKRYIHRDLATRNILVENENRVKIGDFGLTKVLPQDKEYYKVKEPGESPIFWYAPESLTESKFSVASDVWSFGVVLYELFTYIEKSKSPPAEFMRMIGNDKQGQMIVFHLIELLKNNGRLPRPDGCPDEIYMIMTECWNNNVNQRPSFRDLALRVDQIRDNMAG

[6] = target: T3, Tyrosine-protein kinase JAK2; experiment: Inhibition of JAK2 (unknown origin) at 1 uM by biochemical assay relative to control
[7] = species: Homo sapiens; experiment: Selectivity index, ratio of IC50 for inhibition of JAK2 (unknown origin) to IC50 for inhibition of JAK1 (unknown origin)
[8] = species: Homo sapiens; experiment: Selectivity index, ratio of inhibition of JAK1 (unknown origin) to inhibition of JAK3 (unknown origin)
[9] = species: Homo sapiens; experiment: Selectivity index, ratio of inhibition of JAK1 (unknown origin) to inhibition of JAK2 (unknown origin)

Row | SMILES | inhibition [1] [%] | IC50 [2] [nM] | inhibition [3] [%] | inhibition [4] [%] | IC50 [5] [nM] | inhibition [6] [%] | Ratio IC50 [7] | Selectivity Index [8] | Selectivity Index [9]
1 | Cc1c(-c2ncnc3[nH]ccc23)nnn1CCCc1ccc(I)cc1 | 52 |  | 61.7 |  |  | 49.7 |  |  | 
2 | Cc1c(-c2ncnc3[nH]ccc23)nnn1CCc1ccc(I)cc1 |  |  | 54.7 |  |  | 19.7 |  |  | 
3 | Cc1c(-c2ncnc3[nH]ccc23)nnn1Cc1ccc(S(C)(=O)=O)cc1 | 20.6 | 386 | 76.6 | 2.7 | > 10000 | 8 |  |  | 
4 | Cc1c(-c2ncnc3[nH]ccc23)nnn1Cc1ccc(C(C)(C)C)cc1 | 3 |  | 21.6 |  |  | 15 |  |  | 
5 | Cc1c(-c2ncnc3[nH]ccc23)nnn1CCc1ccc(C(F)(F)F)cc1 | 35 |  | 32.7 |  |  | 8.7 |  |  | 
6 | COc1ccc(Cn2nnc(-c3ncnc4[nH]ccc34)c2C)cc1 | 5 |  | 51 |  |  | 3 |  | 10.2 | 17
7 | Cc1c(-c2ncnc3[nH]ccc23)nnn1Cc1cccc(OC(F)(F)F)c1 | 0 |  | 19.3 |  |  |  |  |  | 
8 | Cc1c(-c2ncnc3[nH]ccc23)nnn1Cc1ccc(OC(F)(F)F)cc1 | -3.7 |  | 69.5 |  |  | 13 |  |  | 
9 | Cc1c(-c2ncnc3[nH]ccc23)nnn1CCc1ccc(OC(F)(F)F)cc1 | 20.3 |  | 17.3 |  |  | 3.7 |  |  | 
10 | Cc1c(-c2ncnc3[nH]ccc23)nnn1Cc1ccc(C(F)(F)F)cc1 | -8.7 |  | 86.7 |  |  | 32.7 |  |  | 
11 | Cc1ccc(CCn2nnc(-c3ncnc4[nH]ccc34)c2C)cc1 | 4 |  | 12.3 |  |  |  |  |  | 
12 | Cc1c(-c2ncnc3[nH]ccc23)nnn1Cc1ccccc1OC(F)(F)F | 20.3 |  | 21.6 |  |  | 11.6 |  |  | 

Now from value to compound:

Row | inhibition [1] [%] | IC50 [2] [nM] | inhibition [3] [%] | inhibition [4] [%] | IC50 [5] [nM] | inhibition [6] [%] | Ratio IC50 [7] | Selectivity Index [8] | Selectivity Index [9] | SMILES
13 | 30 | 97 | 94 | 61.6 | 784 | 49.3 | 8 |  |  | Cc1c(-c2ncnc3[nH]ccc23)nnn1Cc1ccc(Br)cc1
14 | -9 |  | 28 |  |  | 14 |  |  |  | Cc1c(-c2ncnc3[nH]ccc23)nnn1Cc1ccccc1
15 | 13.3 |  | 12.5 |  |  | 18.7 |  |  |  | Cc1c(-c2ncnc3[nH]ccc23)nnn1CCc1ccccc1
16 | 11.3 |  | 48 |  |  | 10.7 |  | 12.3 | 5 | Cc1c(-c2ncnc3[nH]ccc23)nnn1CCCc1ccccc1
17 | 36 | 107 | 92 | 67 | 959 | 50 | 9 |  |  | Cc1c(-c2ncnc3[nH]ccc23)nnn1Cc1ccc(Cl)cc1
18 | 7.3 |  | 69.3 |  |  | 15 |  |  |  | Cc1c(-c2ncnc3[nH]ccc23)nnn1Cc1ccc(C#N)cc1
19 | 6 |  | 74 |  |  | 10 |  | 12.3 | 7.4 | Cc1ccc(Cn2nnc(-c3ncnc4[nH]ccc34)c2C)cc1
20 | 14 |  | 75 |  |  | 39 |  |  |  | Cc1c(-c2ncnc3[nH]ccc23)nnn1Cc1ccc(F)cc1
21 | 20.3 | 72 | 94 | 41.3 | 839 | 54 | 12 |  |  | Cc1c(-c2ncnc3[nH]ccc23)nnn1Cc1ccc(I)cc1
